Experimental data reported in patent publication US20230103791A1 (GLAXOSMITHKLINE INTELLECTUAL PROPERTY DEVELOPMENT LIMITED, priority 2019, published 2023).

Target: T1, human Nav1.8 (Homo sapiens, UniProt Q9Y5Y9)
T1 construct: expressed in transfected cells; host or cells: HEK293 (HEK293-Nav1.8)
Assay: Nav1.8 sodium channels assay, QPatch 48 HTX electrophysiology in HEK293-Nav1.8 cells
Type: cell-based
Conditions: at least one set of experimental runs; read-out: average pIC50 value against Nav1.8 (converted)
Method: Human embryonic kidney […] cells (HEK293) expressing human Nav1.8, human Navβ1 and human TREK1 (HEK293-Nav1.8) were grown at 37° C., 5% CO2 in 150 cm^2 flasks. HEK293-Nav1.8 were passaged every 2-3 days when confluency reached 80-90% in to T175 cell culture flasks.
Pharmacological assessment of the invention was performed using HEK293-Nav1.8 in combination with an assay developed on the QPatch 48 HTX electrophysiological system. HEK293-Nav1.8 were prepared on the day of use by removing culture media, washing in DPBS, adding Accutase (2 ml to cover the surface, aspirate 1 ml then 1.5 min at 37° C.) followed by addition of CHO-SFM II to stop the enzyme digestion and in order to obtain a suspension of 3×10^6 cell/mL.
The invention was prepared in an extracellular solution of the following composition (in mM) NaCl 145, KCl 4, CaCl2 2, MgCl 2, HEPES 1, Glucose 10, pH 7.4 with NaOH Osmolality 300 mOsM/L. The intracellular solution was used of the following composition (in mM) CsF 115, CsCl 20, NaCl 5, EGTA 10, HEPES 10, Sucrose 20, pH 7.2 with CsOH Osmolality 310 mOsm/L.
Utilizing the voltage-clamp mode in the QPatch 48 HTX system a half inactivation state voltage protocol (V1/2) was used to determine pharmacological activity of the invention at Nav1.8 ion channels. A V1/2 protocol was utilized with the following voltage steps: a holding voltage of −100 mV was established followed by a 20 ms voltage step to 0 mV (P1), followed by an inactivating voltage step at −46 mV for 8 seconds, followed by a step to −100 mV for 20 ms, before a 20 ms step to 0 mV (P2) before returning to the holding voltage of −100 mV. This voltage protocol was repeated at a frequency of 0.07 Hz., current magnitude was quantified at the P2 step throughout the recording. Inhibition of the measured current amplitude with the invention was analyzed by fitting a 6-8 point dose-response curve allowing determination of the fifty percent inhibition concentration (IC50). Within the QPatch HTX software, P2 current was normalized according to measurements made at baseline after compound and after positive reference compound and fit to the following equation: […]
To assess current run-down over the course of the experiment vehicle-only wells were utilized and the normalized current with vehicle-only (n.IVEH) was determined. To correct the compound response for run-down, the currents were correct according the following formula: […]
Compounds of the invention are tested for activity against Nav1. 8 sodium channels in the above assay.

T1 sequence (Q9Y5Y9 whole entry): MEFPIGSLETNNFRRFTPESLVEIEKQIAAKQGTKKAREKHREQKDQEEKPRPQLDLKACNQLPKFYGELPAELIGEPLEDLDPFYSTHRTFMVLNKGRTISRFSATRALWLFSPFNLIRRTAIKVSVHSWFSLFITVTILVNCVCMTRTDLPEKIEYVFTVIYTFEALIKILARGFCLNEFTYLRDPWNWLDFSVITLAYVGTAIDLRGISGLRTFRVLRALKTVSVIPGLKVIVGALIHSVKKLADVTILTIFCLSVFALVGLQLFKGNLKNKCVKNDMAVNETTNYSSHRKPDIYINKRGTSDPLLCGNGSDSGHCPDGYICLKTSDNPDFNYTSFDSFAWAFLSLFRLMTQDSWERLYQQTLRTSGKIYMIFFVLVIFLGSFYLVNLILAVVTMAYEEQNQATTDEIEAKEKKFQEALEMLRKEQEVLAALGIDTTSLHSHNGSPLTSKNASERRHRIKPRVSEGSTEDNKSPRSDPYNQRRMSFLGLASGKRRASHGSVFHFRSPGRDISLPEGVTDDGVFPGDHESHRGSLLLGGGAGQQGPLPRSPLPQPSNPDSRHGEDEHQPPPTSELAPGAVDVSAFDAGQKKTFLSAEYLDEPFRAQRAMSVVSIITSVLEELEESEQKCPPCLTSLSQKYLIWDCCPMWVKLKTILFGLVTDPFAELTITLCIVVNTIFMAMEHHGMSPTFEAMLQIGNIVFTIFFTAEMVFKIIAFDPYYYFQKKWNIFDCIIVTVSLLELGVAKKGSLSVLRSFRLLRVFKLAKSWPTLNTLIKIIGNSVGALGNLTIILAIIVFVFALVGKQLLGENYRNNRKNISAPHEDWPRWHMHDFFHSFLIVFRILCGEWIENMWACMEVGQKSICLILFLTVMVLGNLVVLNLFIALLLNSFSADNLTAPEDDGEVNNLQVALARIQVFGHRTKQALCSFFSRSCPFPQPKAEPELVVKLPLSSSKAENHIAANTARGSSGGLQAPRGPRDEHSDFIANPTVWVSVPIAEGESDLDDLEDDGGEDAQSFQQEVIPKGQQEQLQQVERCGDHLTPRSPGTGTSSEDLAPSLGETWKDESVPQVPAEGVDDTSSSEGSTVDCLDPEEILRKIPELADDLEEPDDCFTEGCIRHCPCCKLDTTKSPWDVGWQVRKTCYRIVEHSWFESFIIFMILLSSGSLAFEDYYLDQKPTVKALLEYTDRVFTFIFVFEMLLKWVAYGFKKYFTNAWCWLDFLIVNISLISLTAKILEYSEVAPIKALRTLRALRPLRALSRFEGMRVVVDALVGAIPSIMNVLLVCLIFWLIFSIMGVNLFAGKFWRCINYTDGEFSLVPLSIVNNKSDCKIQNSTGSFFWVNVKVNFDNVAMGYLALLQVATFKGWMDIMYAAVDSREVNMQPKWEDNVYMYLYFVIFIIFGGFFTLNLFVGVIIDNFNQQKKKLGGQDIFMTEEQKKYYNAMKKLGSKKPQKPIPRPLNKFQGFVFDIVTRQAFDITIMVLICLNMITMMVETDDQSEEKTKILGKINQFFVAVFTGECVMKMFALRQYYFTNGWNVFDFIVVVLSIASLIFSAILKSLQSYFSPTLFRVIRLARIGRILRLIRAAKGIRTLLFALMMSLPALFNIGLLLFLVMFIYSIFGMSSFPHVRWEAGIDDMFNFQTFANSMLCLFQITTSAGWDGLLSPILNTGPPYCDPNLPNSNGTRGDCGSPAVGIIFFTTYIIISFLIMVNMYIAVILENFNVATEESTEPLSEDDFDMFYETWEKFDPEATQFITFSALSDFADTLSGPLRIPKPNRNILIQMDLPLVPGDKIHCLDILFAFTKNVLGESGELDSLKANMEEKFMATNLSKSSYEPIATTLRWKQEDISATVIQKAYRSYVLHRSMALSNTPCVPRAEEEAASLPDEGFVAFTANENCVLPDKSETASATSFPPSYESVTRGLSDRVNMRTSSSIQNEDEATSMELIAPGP
T1 sequence (Q07699 19-218 partner): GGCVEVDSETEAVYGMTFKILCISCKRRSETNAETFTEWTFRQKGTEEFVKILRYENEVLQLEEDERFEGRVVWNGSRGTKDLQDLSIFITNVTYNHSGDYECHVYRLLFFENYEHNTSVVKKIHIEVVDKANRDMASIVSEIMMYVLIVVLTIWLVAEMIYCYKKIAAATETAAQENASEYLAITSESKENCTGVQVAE

Structure (SMILES) | IC50
Cc1cc(F)ccc1N1CN(c2ccc(S(C)(=O)=O)cc2)C(=O)c2ccc(C(F)(F)F)cc21 [Example 13, 1-(4-fluoro-2-methylphenyl)-3-(4-(methylsulfonyl)phen-yl)-7-(trifluoromethyl)-2,3-dihydroquinazolin-4(1H)-one] | 794 to 7940 nM
Cc1cc(F)ccc1N1CN(c2cccc(S(C)(=O)=O)c2)C(=O)c2ccc(C(F)(F)F)cc21 [Example 14, 1-(4-fluoro-2-methylphenyl)-3-(3-(methylsulfonyl)phen-yl)-7-(trifluoromethyl)-2,3-dihydroquinazolin-4(1H)-one] | 794 to 7940 nM
Cc1cc(F)ccc1N1CN(C2CCS(=O)(=O)C2)C(=O)c2cc(C(F)(F)F)ccc21 (stereo not drawn) [Example 15, 3-(1,1-dioxidotetrahydro-thiophen-3-yl)-1-(4-fluoro-2-methylphenyl)-6-(trifluoromethyl)-2,3-dihydroquinazolin-4(1H)-one] | 794 to 7940 nM
Cc1cnccc1N1CN(c2ccc(F)cc2C)c2ccc(C(F)(F)F)cc2C1=O [Example 16, 1-(4-fluoro-2-methylphenyl)-3-(3-methylpyridin-4-yl)-6-(trifluoromethyl)-2,3-dihydroquinazolin-4(1H)-one] | 126 to 631 nM
Cc1cc(F)ccc1N1CN(C2CCS(=O)(=O)CC2)C(=O)c2ccc(C(F)(F)F)cc21 [Example 17, 3-(1,1-dioxidotetrahydro-2H-thiopyran-4-yl)-1-(4-fluoro-2-methylphenyl)-7-(trifluoromethyl)-2,3-dihydroquinazolin-4(1H)-one] | 794 to 7940 nM
Cc1cc(F)ccc1N1CN(c2cn[nH]c2)C(=O)c2cc(C(F)(F)F)ccc21 [Example 18, 1-(4-fluoro-2-methylphenyl)-3-(1H-pyrazol-4-yl)-6-(trifluoromethyl)-2,3-dihydroquinazolin-4(1H)-one] | 794 to 7940 nM
COc1ccc(N2CN(c3ccc(F)cc3C)c3ccc(C(F)(F)F)cc3C2=O)c(C)n1 [Example 19, 1-(4-fluoro-2-methylphenyl)-3-(6-methoxy-2-methylpyridin-3-yl)-6-(trifluoromethyl)-2,3-dihydroquinazolin-4(1H)-one] | 794 to 7940 nM
Cc1cc(F)ccc1N1CN(c2n[nH]c(=O)cc2C)C(=O)c2ccc(C(F)(F)F)cc21 [Example 20, 1-(4-fluoro-2-methylphenyl)-3-(4-methyl-6-oxo-1,6-dihydropyridazin-3-yl)-7-(trifluoromethyl)-2,3-dihydroquinazolin-4(1H)-one] | 794 to 7940 nM
Cc1cnccc1N1CN(c2ccc(OC(F)(F)F)cc2C)c2ccc(C(F)(F)F)cc2C1=O [Example 21, 1-(2-methyl-4-(trifluoromethoxy)phenyl)-3-(3-methylpyridin-4-yl)-6-(trifluoromethyl)-2,3-dihydroquinazolin-4(1H)-one] | 126 to 631 nM
Cc1cc(Cl)ncc1N1CN(c2ccc(F)cc2C)c2ccc(C(F)(F)F)cc2C1=O [Example 22, 3-(6-chloro-4-methylpyridin-3-yl)-1-(4-fluoro-2-methylphenyl)-6-(trifluoromethyl)-2,3-dihydroquinazolin-4(1H)-one] | 794 to 7940 nM
Cc1cnccc1N1CN(c2ccc(F)cc2C)c2cc(C(F)F)c(Cl)cc2C1=O [Example 23, 6-chloro-7-(difluoromethyl)-1-(4-fluoro-2-methylphenyl)-3-(3-methylpyridin-4-yl)-2,3-dihydroquinazolin-4(1H)-one] | 126 to 631 nM
Cc1cc(F)ccc1N1CN(c2c[nH]nc2C)C(=O)c2cc(C(F)(F)F)ccc21 [Example 28, 1-(4-fluoro-2-methylphenyl)-3-(3-methyl-1H-pyrazol-4-yl)-6-(trifluoromethyl)-2,3-dihydroquinazolin-4(1H)-one] | 126 to 631 nM
Cc1cc(F)ccc1N1CN([C@H]2CCC(=O)N[C@@H]2C)C(=O)c2cc(C(F)(F)F)ccc21 [Example 33, 1-(4-fluoro-2-methylphenyl)-3-((2R,3S)-2-methyl-6-oxopiperidin-3-yl)-6-(trifluoromethyl)-2,3-dihydroquinazolin-4(1H)-one] | ≤ 100 nM
Cc1cc(F)ccc1N1CN(C2CCC(=O)NC2=O)C(=O)c2cc(C(F)(F)F)ccc21 (stereo not drawn) [Example 34, 3-(1-(4-fluoro-2-methylphenyl)-4-oxo-6-(trifluoromethyl)-1,4-dihydroquinazolin-3(2H)-yl)piperidine-2,6-dione] | 126 to 631 nM
Cc1cc(F)ccc1N1CN(c2ccc(=O)[nH]c2C)C(=O)c2ccc(C(F)(F)F)cc21 [Example 35, 1-(4-Fluoro-2-methylphenyl)-3-(2-methyl-6-oxo-1,6-dihydropyridin-3-yl)-7-(trifluoromethyl)-2,3-dihydroquinazolin-4(1H)-one] | ≤ 100 nM
Cc1cc(F)ccc1N1CN(c2ccc(=O)[nH]c2)C(=O)c2ccc(C(F)(F)F)cc21 [Example 36, 1-(4-fluoro-2-methylphenyl)-3-(6-oxo-1,6-dihydropyridin-3-yl)-7-(trifluoromethyl)-2,3-dihydroquinazolin-4(1H)-one] | 126 to 631 nM
O=C1c2ccc(C(F)(F)F)cc2N(C2CCCCC2)CN1c1ccc(=O)[nH]c1 [Example 37, 1-cyclohexyl-3-(6-oxo-1,6-dihydropyridin-3-yl)-7-(trifluoromethyl)-2,3-dihydroquinazolin-4(1H)-one] | 794 to 7940 nM
Cc1cc(F)cc(C)c1N1CN(c2ccc(=O)[nH]c2)C(=O)c2ccc(C(F)(F)F)cc21 [Example 38, 1-(4-fluoro-2,6-dimethylphenyl)-3-(6-oxo-1,6-dihydropyridin-3-yl)-7-(trifluoromethyl)-2,3-dihydroquinazolin-4(1H)-one] | 794 to 7940 nM
Cc1cc(F)ccc1N1c2cc(C(F)(F)F)ccc2C(=O)N(c2ccc(=O)[nH]c2)C1C (stereo not drawn) [Example 39, 1-(4-fluoro-2-methylphenyl)-2-methyl-3-(6-oxo-1,6-dihydropyridin-3-yl)-7-(trifluoromethyl)-2,3-dihydroquinazolin-4(1H)-one] | 794 to 7940 nM
O=C1c2ccc(C(F)(F)F)cc2N(c2ccc(F)cc2Cl)CN1c1ccc(=O)[nH]c1 [Example 40, 1-(2-chloro-4-fluorophenyl)-3-(6-oxo-1,6-dihydropyridin-3-yl)-7-(trifluoromethyl)-2,3-dihydroquinazolin-4(1H)-one] | 126 to 631 nM
O=C1c2ccc(C(F)(F)F)cc2N(c2ccc(F)cc2OCCO)CN1c1ccc(=O)[nH]c1 [Example 41, 1-(4-fluoro-2-(2-hydroxyeth-oxy)phenyl)-3-(6-oxo-1,6-dihydropyridin-3-yl)-7-(trifluoromethyl)-2,3-dihydroquinazolin-4(1H)-one] | 794 to 7940 nM
O=C1c2ccc(C(F)(F)F)cc2N(c2ccc(F)cc2F)CN1c1ccc(=O)[nH]c1 [Example 42, 1-(2,4-difluorophenyl)-3-(6-oxo-1,6-dihydropyridin-3-yl)-7-(trifluoromethyl)-2,3-dihydroquinazolin-4(1H)-one] | 794 to 7940 nM
CCc1cc(F)ccc1N1CN(c2ccc(=O)[nH]c2)C(=O)c2ccc(C(F)(F)F)cc21 [Example 43, 1-(2-ethyl-4-fluorophenyl)-3-(6-oxo-1,6-dihydropyridin-3-yl)-7-(trifluoromethyl)-2,3-dihydroquinazolin-4(1H)-one] | 126 to 631 nM
Cc1cc(F)ccc1N1CN(c2ccc(=O)[nH]c2)C(=O)c2ccc(C(F)(F)F)c(Cl)c21 [Example 44, 8-chloro-1-(4-fluoro-2-methylphenyl)-3-(6-oxo-1,6-dihydropyridin-3-yl)-7-(trifluoromethyl)-2,3-dihydroquinazolin-4(1H)-one] | 794 to 7940 nM
